Data: US11339128B2 (Firmenich Incorporated, priority 2014, dated 2022)

Target: T1, T1R2/T1R3 taste receptor (Homo sapiens, UniProt Q7RTX0+Q8TE23)
T1 sequence (Q8TE23 20-839): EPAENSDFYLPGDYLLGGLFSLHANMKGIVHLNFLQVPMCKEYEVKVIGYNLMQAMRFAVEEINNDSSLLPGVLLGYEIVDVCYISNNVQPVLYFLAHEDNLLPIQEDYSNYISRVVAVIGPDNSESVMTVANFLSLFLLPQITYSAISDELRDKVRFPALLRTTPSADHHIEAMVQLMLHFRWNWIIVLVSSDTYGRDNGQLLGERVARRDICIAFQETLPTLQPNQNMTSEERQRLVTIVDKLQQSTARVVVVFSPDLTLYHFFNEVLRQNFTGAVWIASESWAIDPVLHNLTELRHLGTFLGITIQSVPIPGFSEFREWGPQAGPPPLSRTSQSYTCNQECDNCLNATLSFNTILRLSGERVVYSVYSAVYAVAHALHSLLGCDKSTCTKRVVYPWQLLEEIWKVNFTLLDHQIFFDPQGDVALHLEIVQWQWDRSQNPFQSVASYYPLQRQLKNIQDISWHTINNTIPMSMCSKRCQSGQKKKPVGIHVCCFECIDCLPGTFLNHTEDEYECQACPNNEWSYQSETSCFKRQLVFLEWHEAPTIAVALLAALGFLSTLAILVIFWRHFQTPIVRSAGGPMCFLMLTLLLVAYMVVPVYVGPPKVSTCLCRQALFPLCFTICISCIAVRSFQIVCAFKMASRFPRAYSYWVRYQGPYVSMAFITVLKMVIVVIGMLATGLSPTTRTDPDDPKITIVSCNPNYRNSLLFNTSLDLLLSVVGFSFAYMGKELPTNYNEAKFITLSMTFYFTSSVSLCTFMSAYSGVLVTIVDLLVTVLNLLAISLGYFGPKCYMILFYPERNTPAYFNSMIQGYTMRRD
T1 sequence (Q7RTX0 21-852): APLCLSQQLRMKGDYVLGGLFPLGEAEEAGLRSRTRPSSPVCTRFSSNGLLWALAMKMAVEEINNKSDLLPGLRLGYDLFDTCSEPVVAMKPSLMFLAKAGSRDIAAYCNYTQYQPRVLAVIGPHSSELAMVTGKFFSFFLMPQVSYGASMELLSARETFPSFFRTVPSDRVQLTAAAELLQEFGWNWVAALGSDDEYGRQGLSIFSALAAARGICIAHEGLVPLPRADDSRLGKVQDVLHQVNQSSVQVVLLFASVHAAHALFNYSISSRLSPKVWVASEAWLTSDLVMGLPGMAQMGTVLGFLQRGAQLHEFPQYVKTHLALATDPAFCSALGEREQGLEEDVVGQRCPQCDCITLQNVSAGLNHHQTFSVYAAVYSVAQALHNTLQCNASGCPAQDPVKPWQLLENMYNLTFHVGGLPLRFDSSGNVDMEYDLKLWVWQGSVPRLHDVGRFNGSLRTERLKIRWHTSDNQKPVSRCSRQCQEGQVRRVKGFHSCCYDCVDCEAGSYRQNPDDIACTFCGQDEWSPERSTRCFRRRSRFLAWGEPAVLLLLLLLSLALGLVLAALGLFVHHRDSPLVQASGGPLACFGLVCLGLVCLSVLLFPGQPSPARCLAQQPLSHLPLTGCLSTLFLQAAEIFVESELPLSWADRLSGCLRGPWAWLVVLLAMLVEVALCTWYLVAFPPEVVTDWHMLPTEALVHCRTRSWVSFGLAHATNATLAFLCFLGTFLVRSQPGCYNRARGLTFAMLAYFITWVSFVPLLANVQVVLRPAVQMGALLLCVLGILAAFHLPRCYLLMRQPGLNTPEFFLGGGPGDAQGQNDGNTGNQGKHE
Test: Receptor-based assay: sweetener EC50 enhancement ratio with and without test compound
Type: cell-based
Conditions: for Sucrose Enhancement EC50 Ratio: sweetener sucrose; for Sucralose Enhancement EC50 Ratio: sweetener sucralose
Description: Potencies (EC50 values) for the sweeteners sucrose, sucralose, and fructose were measured against the T1R2/T1R3 taste receptor. EC50 was determined using the sweetener alone and in the presence of 1 μM, 3 μM, 10 μM, or 50 μM of test compound. EC50 ratios were calculated by the ratio of potency with and without the test compound. An “A” value indicates an enhancement ratio of greater than 1 and less than 10. A “B” value indicates an enhancement ratio from 10 to 20. A “C” value indicates an enhancement ratio greater than 20.

SMILES	Sucrose Enhancement EC50 Ratio (1 μM test compound)	Sucrose Enhancement EC50 Ratio (3 μM test compound)	Sucrose Enhancement EC50 Ratio (10 μM test compound)	Sucralose Enhancement EC50 Ratio (3 μM test compound)	Sucralose Enhancement EC50 Ratio (10 μM test compound)	Fructose Enhancement EC50 Ratio (50 μM test compound, sweetener fructose)
COCC(=O)N[C@H]1CC[C@H](Oc2cccc3nc(C)c(C(=O)O)c(N)c23)CC1 [Compound 304]	A (an enhancement ratio of greater than 1 and less than 10)	B (an enhancement ratio from 10 to 20)	A (an enhancement ratio of greater than 1 and less than 10)			
Cc1nc2cccc(O[C@H]3CC[C@H](NC(=O)COC(C)(C)C)CC3)c2c(N)c1C(=O)O [Compound 308]	B (an enhancement ratio from 10 to 20)					
Cc1nc2cccc(O[C@H]3CC[C@H](NC(=O)CO[C@H]4CC[C@H](C)CC4)CC3)c2c(N)c1C(=O)O [Compound 312]	A (an enhancement ratio of greater than 1 and less than 10)	A (an enhancement ratio of greater than 1 and less than 10)	B (an enhancement ratio from 10 to 20)			
Cc1nc2cccc(O[C@H]3CC[C@H](NC(=O)COCC4CC4)CC3)c2c(N)c1C(=O)O [Compound 313]	A (an enhancement ratio of greater than 1 and less than 10)	C (an enhancement ratio greater than 20)	A (an enhancement ratio of greater than 1 and less than 10)			
Cc1nc2cccc(O[C@H]3CC[C@H](NC(=O)COC4CCOCC4)CC3)c2c(N)c1C(=O)O [Compound 314]	B (an enhancement ratio from 10 to 20)			B (an enhancement ratio from 10 to 20)		
CCOC(C)C(=O)N[C@H]1CC[C@H](Oc2cccc3nc(C)c(C(=O)O)c(N)c23)CC1 (some centres unmarked) [Compound 315]	B (an enhancement ratio from 10 to 20)	B (an enhancement ratio from 10 to 20)	C (an enhancement ratio greater than 20)			
CCOC(C)(C)C(=O)N[C@H]1CC[C@H](Oc2cccc3nc(C)c(C(=O)O)c(N)c23)CC1 [Compound 316]	A (an enhancement ratio of greater than 1 and less than 10)	A (an enhancement ratio of greater than 1 and less than 10)	B (an enhancement ratio from 10 to 20)			
COCCC(=O)N[C@H]1CC[C@H](Oc2cccc3nc(C)c(C(=O)O)c(N)c23)CC1 [Compound 317]	A (an enhancement ratio of greater than 1 and less than 10)	A (an enhancement ratio of greater than 1 and less than 10)	B (an enhancement ratio from 10 to 20)			
CCSCC(=O)N[C@H]1CC[C@H](Oc2cccc3nc(C)c(C(=O)O)c(N)c23)CC1 [Compound 318]	A (an enhancement ratio of greater than 1 and less than 10)	A (an enhancement ratio of greater than 1 and less than 10)	B (an enhancement ratio from 10 to 20)		B (an enhancement ratio from 10 to 20)	A (an enhancement ratio of greater than 1 and less than 10)
Cc1nc2cccc(O[C@H]3CC[C@H](NC(=O)CCCC(C)C)CC3)c2c(N)c1C(=O)O [Compound 319]	A (an enhancement ratio of greater than 1 and less than 10)	A (an enhancement ratio of greater than 1 and less than 10)	A (an enhancement ratio of greater than 1 and less than 10)			
Cc1nc2cccc(O[C@H]3CC[C@H](NC(=O)C4CCC4)CC3)c2c(N)c1C(=O)O [Compound 320]	A (an enhancement ratio of greater than 1 and less than 10)	B (an enhancement ratio from 10 to 20)	B (an enhancement ratio from 10 to 20)		B (an enhancement ratio from 10 to 20)	
Cc1nc2cccc(O[C@H]3CC[C@H](NC(=O)Cc4c[nH]cn4)CC3)c2c(N)c1C(=O)O [Compound 321]	A (an enhancement ratio of greater than 1 and less than 10)	A (an enhancement ratio of greater than 1 and less than 10)				
CCOCC(=O)N[C@H]1CC[C@H](Oc2cccc3nc(CC)c(C(=O)O)c(N)c23)CC1 [Compound 322]	A (an enhancement ratio of greater than 1 and less than 10)	A (an enhancement ratio of greater than 1 and less than 10)				
Cc1nc2cccc(O[C@H]3CC[C@H](NC(=O)CN4CCCC4)CC3)c2c(N)c1C(=O)O [Compound 323]	A (an enhancement ratio of greater than 1 and less than 10)	A (an enhancement ratio of greater than 1 and less than 10)				
Cc1nc2cccc(O[C@H]3CC[C@H](NC(=O)CN(C)C)CC3)c2c(N)c1C(=O)O [Compound 324]	A (an enhancement ratio of greater than 1 and less than 10)	A (an enhancement ratio of greater than 1 and less than 10)		A (an enhancement ratio of greater than 1 and less than 10)		
Cc1nc2cccc(O[C@H]3CC[C@H](NC(=O)Cn4ccnc4)CC3)c2c(N)c1C(=O)O [Compound 325]	A (an enhancement ratio of greater than 1 and less than 10)	B (an enhancement ratio from 10 to 20)		A (an enhancement ratio of greater than 1 and less than 10)		
Cc1nc2cccc(O[C@H]3CC[C@H](NC(=O)COCC4CCC4)CC3)c2c(N)c1C(=O)O [Compound 326]	B (an enhancement ratio from 10 to 20)					
Cc1nc2cccc(O[C@H]3CC[C@H](NC(=O)COc4ccccc4)CC3)c2c(N)c1C(=O)O [Compound 327]	A (an enhancement ratio of greater than 1 and less than 10)					
Cc1nc2cccc(O[C@H]3CC[C@H](NC(=O)CO[C@@H]4C[C@H](C)CC[C@H]4C(C)C)CC3)c2c(N)c1C(=O)O [Compound 328]	A (an enhancement ratio of greater than 1 and less than 10)	A (an enhancement ratio of greater than 1 and less than 10)	C (an enhancement ratio greater than 20)			
Cc1nc2cccc(O[C@H]3CC[C@H](NC(=O)COCCOC(C)C)CC3)c2c(N)c1C(=O)O [Compound 329]	A (an enhancement ratio of greater than 1 and less than 10)	B (an enhancement ratio from 10 to 20)		A (an enhancement ratio of greater than 1 and less than 10)		
